Data reported in ChEMBL document CHEMBL4052831, “The Discovery of N-(1-Methyl-5-(trifluoromethyl)-1H-pyrazol-3-yl)-5-((6- ((methylamino)methyl)pyrimidin-4-yl)oxy)-1H-indole-1-carboxamide (Acrizanib), a VEGFR-2 Inhibitor Specifically Designed for Topical Ocular Delivery, as a Therapy for Neovascular Age-Related Macular Degeneration” (J Med Chem, 2018).
Calls of active or inactive are those of the source. No cut-off for these calls is given here.

Legend:
[1] = molecular target: Vascular endothelial growth factor receptor 2 (Homo sapiens, UniProt P35968)
Vascular endothelial growth factor receptor 2, sequence (P35968 whole entry): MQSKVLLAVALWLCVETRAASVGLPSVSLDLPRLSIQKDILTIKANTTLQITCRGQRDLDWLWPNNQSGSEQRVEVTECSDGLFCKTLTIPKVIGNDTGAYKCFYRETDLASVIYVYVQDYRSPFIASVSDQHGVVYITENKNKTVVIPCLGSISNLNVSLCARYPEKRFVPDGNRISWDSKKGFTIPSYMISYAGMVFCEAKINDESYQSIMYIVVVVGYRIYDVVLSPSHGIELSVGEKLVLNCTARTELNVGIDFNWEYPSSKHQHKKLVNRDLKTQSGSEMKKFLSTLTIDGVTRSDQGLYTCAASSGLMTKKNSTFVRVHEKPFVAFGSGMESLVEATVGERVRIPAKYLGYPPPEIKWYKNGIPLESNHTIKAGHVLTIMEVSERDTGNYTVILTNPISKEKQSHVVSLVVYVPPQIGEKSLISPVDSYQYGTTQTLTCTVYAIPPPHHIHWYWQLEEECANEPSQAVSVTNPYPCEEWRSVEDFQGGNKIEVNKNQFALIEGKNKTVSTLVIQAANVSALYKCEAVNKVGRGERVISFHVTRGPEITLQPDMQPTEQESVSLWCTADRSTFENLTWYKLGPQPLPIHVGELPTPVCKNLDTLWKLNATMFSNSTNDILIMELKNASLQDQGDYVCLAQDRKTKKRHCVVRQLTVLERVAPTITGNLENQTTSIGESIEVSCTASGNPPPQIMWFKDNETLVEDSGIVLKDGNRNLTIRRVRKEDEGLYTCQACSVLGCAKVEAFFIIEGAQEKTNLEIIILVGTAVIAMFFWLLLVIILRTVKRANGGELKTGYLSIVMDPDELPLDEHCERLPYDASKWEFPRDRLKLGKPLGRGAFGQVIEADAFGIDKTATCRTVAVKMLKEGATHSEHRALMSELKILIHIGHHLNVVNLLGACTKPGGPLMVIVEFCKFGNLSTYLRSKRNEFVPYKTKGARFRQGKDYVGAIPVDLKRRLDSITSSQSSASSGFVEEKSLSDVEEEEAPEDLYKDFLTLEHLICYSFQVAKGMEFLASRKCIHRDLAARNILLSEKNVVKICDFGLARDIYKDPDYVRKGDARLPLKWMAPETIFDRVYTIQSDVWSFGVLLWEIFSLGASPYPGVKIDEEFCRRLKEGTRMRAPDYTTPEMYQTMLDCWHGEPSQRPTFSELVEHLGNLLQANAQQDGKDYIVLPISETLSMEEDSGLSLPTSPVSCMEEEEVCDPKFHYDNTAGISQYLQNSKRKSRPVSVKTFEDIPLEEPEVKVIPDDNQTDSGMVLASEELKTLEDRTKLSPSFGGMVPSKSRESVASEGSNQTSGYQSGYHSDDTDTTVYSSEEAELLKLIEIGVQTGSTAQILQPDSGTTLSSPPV
Description: Inhibition of KDR (unknown origin) expressed in mouse Ba/F3 cells

[2] = Intrinsic clearance in rat liver microsomes at 1 uM after 5 to 30 mins by LC-MS/MS analysis; format: ADME, microsome; conditions: read-out: CLH
[3] = test system: Mus musculus; test: Antiangiogenic activity in C57BL/6 mouse laser-induced choroidal neovascularization model assessed as inhibition of neovascularization administered 1% suspension using 3.5 uL topical drop to both eyes every 3 hrs for 9 hrs by microscopic analysis
[4] = test system: Rattus norvegicus; test: Antiangiogenic activity in Brown Norway rat laser-induced choroidal neovascularization model assessed as inhibition of neovascularization administered 1% suspension using 4 uL topical drop to both eyes every 3 hrs for 9 hrs by microscopic analysis

`O=C(Nc1cccc(C(F)(F)F)c1)c1cccc2cc(Oc3cc(CO)ncn3)ccc12` [BFH-772] showed an IC50 [1] of 1.3 nM.

With `CNCc1cc(Oc2ccc3c(ccn3C(=O)Nc3cc(C(C)C)on3)c2)ncn1` the microsomal CLint at 1 µM [2] was 114 µL/min/mg.

For `O=C(Nc1cc(C2CCOCC2)on1)n1ccc2cc(Oc3ncnc4c3CNC4)ccc21`, the inhibition [3] was “inactive”.

For `CC(=O)N1Cc2ncnc(Oc3ccc4c(ccn4C(=O)Nc4cc(C5CC5)on4)c3)c2C1`, the inhibition [4] was “inactive”.
